Laboratory results as given in patent US11667675B2, “MASP inhibitory compounds and uses thereof” (Bayer Aktiengesellschaft, priority 2019, dated 2023).
Counter-ions that a name gives are not always drawn. Numbered stars: 1 amine (or outer) side, 2 acyl side, 3 side chain; on linkers, the order of the positions; unused ones are H or OH. Bridge positions count the residues as written; N and C are the ends. Square brackets hold non-standard residues; d marks the D form. Peptide text beside a SMILES is read from it. * marks the point of attachment. X1 = O=C(C1[C@H]2CCCC[C@H]2C[C@H]1C(=O)[*:2])[C@@H]1CCCN1[*:1]; Oic = O=C(O)[C@@H]1C[C@@H]2CCCC[C@@H]2N1; Pen = CC(C)(S)[C@H](N)C(=O)O; X2 = N[C@@H](CN*)C(=O)O; Sar = CNCC(=O)O

Assays:
[1] = target: T1, rat MASP1 (Rattus norvegicus, UniProt Q8CHN8); assay: Biochemical rat MASP1 assay (FRET substrate); conditions: average IC50; recombinant rat MASP1, FRET substrate
T1 construct: Ig-kappa secretion signal (N, cleaved yes); made in house; host or cells: HEK293 (ATCC No. CRL-1573)
T1 sequence (Q8CHN8 302-453 limits assumed): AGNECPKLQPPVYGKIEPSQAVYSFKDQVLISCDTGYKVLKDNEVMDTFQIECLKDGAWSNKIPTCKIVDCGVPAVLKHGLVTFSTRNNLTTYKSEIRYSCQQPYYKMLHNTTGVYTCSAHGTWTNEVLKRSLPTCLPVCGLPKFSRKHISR
T1 sequence (Q8CHN8 454-704 limits assumed): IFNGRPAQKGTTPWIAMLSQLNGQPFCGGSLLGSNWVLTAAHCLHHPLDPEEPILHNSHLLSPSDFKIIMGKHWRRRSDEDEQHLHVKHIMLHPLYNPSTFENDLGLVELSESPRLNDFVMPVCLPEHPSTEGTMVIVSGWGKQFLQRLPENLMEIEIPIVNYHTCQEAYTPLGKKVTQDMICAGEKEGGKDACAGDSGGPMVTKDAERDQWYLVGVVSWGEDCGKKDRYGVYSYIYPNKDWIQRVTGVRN
Text: 4. Biochemical Rat MASP-1 and MASP-2 Assay
4.1 Recombinant Expression and Protein Production of Recombinant Human and Rat MASP1 and MASP2 Active Proteases.
A truncated cDNA sequence of rat MASP1 encoding the fragment corresponding to the amino acids 302-704 with an C-terminal His Tag and N-terminal Ig-kappa secretion signal (SEQ ID No: 4) was subcloned into the mammalian expression vector pcDNA3.1 (Invitrogen).
(§1) The MASP1 or MASP2 expression vectors were transfected into the HEK293 (ATCC No. CRL-1573) cell line using Lipofectamine LTX® Reagent (Thermo-Fischer), as described by the manufacturer. The mature form of the recombinant rat MASP1 and MASP2 proteases were secreted into the culture medium. The MASP1 and MASP2 proteins were purified from the conditioned media by affinity chromatography on Ni-NTA Superflow resin (Qiagen) as described by the manufacturer.
4.2 Biochemical Rat MASP1 Assay.
Recombinant rat MASP1 enzyme produced in the HEK 293 cells was diluted in the reaction buffer (50 mM HEPES pH 8,0; 100 mM NaCl; 0.01% CHAPS; 0.5 mM Gluthathione) to the concentration of 4 nM and 25 μl was transferred into each single well of 384-well white microtiter plate (Greiner Bio One 781075). 1 μl of the inhibitor compound solution (dissolved in DMSO, at the corresponding concentration) or pure DMSO as a control was added to the same wells. The enzymatic reaction was initiated by addition of 25 μl of 40 μM solution of the FRET substrate Dabcyl-[…]-Glu(Edans)-NH2 (SEQ ID NO: 8); (Dabcyl—4-((4-(dimethylamino)phenyl)azo)benzoic acid; Edans—5-[(2-Aminoethyl) amino]naphthalene-1-sulfonyl; custom synthesis by Jerini Peptide Technologies, Berlin) in the reaction buffer. The microtiter plate was incubated for 60-120 min at the temperature of 32 C. The increase of fluorescence intensity was measured in appropriate fluorescence plate reader (e.g. TECAN Ultra) using excitation wavelength of 340 nm and emission wavelength of 490 nm. IC50 values were calculated from percentage of inhibition of rat […] activity as a function of test compound concentration.

[2] = target: T2, human MASP1 (Homo sapiens, UniProt P48740); assay: Biochemical human MASP1 assay (FRET substrate); conditions: average IC50
T2 construct: Ig-kappa secretion signal (N, cleaved yes); made in house; host or cells: HEK293 (ATCC No. CRL-1573)
T2 sequence (P48740 297-448): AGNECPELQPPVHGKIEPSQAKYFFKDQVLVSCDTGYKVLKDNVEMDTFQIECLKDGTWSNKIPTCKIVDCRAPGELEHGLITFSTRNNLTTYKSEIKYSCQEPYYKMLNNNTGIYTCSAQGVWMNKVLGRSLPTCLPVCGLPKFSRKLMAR
T2 sequence (P48740 449-699): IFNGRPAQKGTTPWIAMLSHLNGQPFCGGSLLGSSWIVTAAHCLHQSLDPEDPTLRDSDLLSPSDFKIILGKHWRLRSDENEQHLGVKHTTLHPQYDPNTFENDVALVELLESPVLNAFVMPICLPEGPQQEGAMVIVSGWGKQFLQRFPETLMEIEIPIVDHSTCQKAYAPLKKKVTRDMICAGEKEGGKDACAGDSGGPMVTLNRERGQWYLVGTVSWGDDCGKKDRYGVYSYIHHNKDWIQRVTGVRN
Text: (§2) 2.1 Recombinant Expression and Protein Production of Recombinant Human MASP1 and MASP2 Active Proteases.
as §1, with “The mature form of the recombinant rat MASP1 and MASP2 proteases were secreted into the culture medium.” left out
2.2 Biochemical Human MASP1 Assay
(§3) Recombinant human MASP1 enzyme produced in the HEK 293 cells was diluted in the reaction buffer (50 mM HEPES pH 8,0; 100 mM NaCl; 0.01% CHAPS; 0.5 mM Gluthathione) to the concentration of 20 nM and 25 μl was transferred into each single well of 384-well white microtiter plate (Greiner Bio One 781075). 1 μl of the inhibitor compound solution (dissolved in DMSO, at the corresponding concentration) or pure DMSO as a control was added to the same wells. […] The microtiter plate was incubated for 60-120 min at the temperature of 32 C. The increase of fluorescence intensity was measured in appropriate fluorescence plate reader (e.g. TECAN Ultra) using excitation wavelength of 320 nm and emission wavelength of 420 nm. IC50 values were calculated from percentage of inhibition of human MASP1 activity as a function of test compound concentration.

[3] = target: T3, human MASP2 (Homo sapiens, UniProt O00187); assay: Biochemical human MASP2 assay (FRET substrate); conditions: average IC50
T3 construct: Ig-kappa secretion signal (N, cleaved yes); made in house; host or cells: HEK293 (ATCC No. CRL-1573)
T3 sequence (O00187 297-444): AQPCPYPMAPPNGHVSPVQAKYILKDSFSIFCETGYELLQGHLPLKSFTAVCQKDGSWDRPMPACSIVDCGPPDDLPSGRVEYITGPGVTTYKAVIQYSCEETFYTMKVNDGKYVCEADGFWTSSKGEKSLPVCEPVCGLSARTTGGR
T3 sequence (O00187 445-686): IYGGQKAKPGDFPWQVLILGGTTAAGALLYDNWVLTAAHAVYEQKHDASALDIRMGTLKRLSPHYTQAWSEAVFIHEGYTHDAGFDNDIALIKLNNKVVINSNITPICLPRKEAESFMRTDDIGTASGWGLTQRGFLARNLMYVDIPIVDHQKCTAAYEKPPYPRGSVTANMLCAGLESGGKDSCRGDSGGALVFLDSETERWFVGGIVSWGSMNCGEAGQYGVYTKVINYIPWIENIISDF
Text: as §2
as §1, with “The mature form of the recombinant rat MASP1 and MASP2 proteases were secreted into the culture medium.” left out
2.3 Biochemical Human MASP2 Assay
as §3, with “MASP2” for “MASP1”, “340” for “320”, “490” for “420”

| Structure (SMILES) | IC50 [1] | IC50 [2] | IC50 [3] |
| --- | --- | --- | --- |
| CC[C@H](C)[C@H](NC(=O)CNC)C(=O)N[C@H]1CSSC(C)(C)[C@@H](C(=O)N[C@H](C(=O)N2CCC[C@H]2C(=O)NC[C@H](N)C(=O)O)[C@@H](C)CC)NC(=O)[C@H]([C@@H](C)CC)NC(=O)[C@@H]2C[C@@H]3CCCC[C@@H]3N2C(=O)[C@@H]2CCCN2C(=O)[C@H](CC(C)C)NC(=O)[C@H](CO)NC(=O)[C@H](CCCNC(=N)N)NC(=O)[C@H](CO)NC1=O [Example 467] (H-[Sar]ICSRSLP[Oic]I[Pen]IP-X2; disulfide 3-11) | 0.17 µM | 0.0066 µM | 0.055 µM |
| CC[C@H](C)[C@H](NC(=O)CNC)C(=O)N[C@H]1CSSC(C)(C)[C@@H](C(=O)N[C@H](C(=O)N2CCC[C@H]2C(=O)N[C@@H](CC(=O)O)C(=O)N[C@@H](CC(=O)O)C(=O)O)[C@@H](C)CC)NC(=O)[C@H]([C@@H](C)CC)NC(=O)[C@@H]2C[C@@H]3CCCC[C@@H]3N2C(=O)[C@@H]2CCCN2C(=O)[C@H](CC(C)C)NC(=O)[C@H](CO)NC(=O)[C@H](CCCNC(=N)N)NC(=O)[C@H](CO)NC1=O [Example 466, ((N-Me)G)-IC+SRSLP-(Oic)-I-(Pen)+IPDD-OH] (H-[Sar]ICSRSLP[Oic]I[Pen]IPDD-OH; disulfide 3-11) | 0.0176 µM | 0.00072 µM | 0.04 µM |
| CC[C@H](C)[C@H](NC(=O)[C@H](C)N)C(=O)N[C@H]1CSSC[C@@H](C(=O)N[C@H](C(=O)N2CCC[C@H]2C(=O)N[C@@H](CC(=O)O)C(N)=O)[C@@H](C)CC)N(C)C(=O)[C@H]([C@@H](C)CC)NC(=O)[C@@H]2C[C@@H]3CCCC[C@@H]3N2C(=O)[C@@H]2CCCN2C(=O)[C@H](CC(C)C)NC(=O)[C@H](CO)NC(=O)[C@H](CCCNC(=N)N)NC(=O)[C@H](CO)NC1=O [Example 185, AIC+SRSLP-(Oic)-I-((N-Me)C)+IPD-NH2] | 0.057 µM | 0.0048 µM | 0.245 µM |
| [2H][C@@H]1[C@H]([2H])CN2C(=O)[C@H](CC(C)C)NC(=O)[C@H](CO)NC(=O)[C@H](CCCNC(=N)N)NC(=O)[C@H](CO)NC(=O)[C@@H](NC(=O)[C@@H](NC(=O)[C@H](C)N)[C@@H](C)CC)CSSC(C)(C)[C@@H](C(=O)N[C@H](C(=O)N3CCC[C@H]3C(=O)N[C@@H](CC(=O)O)C(=O)O)[C@@H](C)CC)NC(=O)[C@H]([C@@H](C)CC)NC(=O)[C@@H]3C[C@@H]4CCCC[C@@H]4N3C(=O)[C@H]12 [Example 142, N-[(1R,2S,6S,9S,12S,15S,18R,23R,26S,28aS,35aS)-18-[(L-alanyl-L-isoleucyl)amino]-26-[(2S)-butan-2-yl]-12-(3-carbamimidamidopropyl)-9,15-bis(hydroxymethyl)-22,22-dimethyl-6-(2-methylpropyl)-5,8,11,14,17,25,28,35-octaoxo(1,2-^2H2)dotriacontahydro-1H,5H,22H-pyrrolo[2′,1′:13,14][1,2,5,8,11,14,17,20,23,26]dithiaoctaazacyclononacosino[11,10-a]indole-23-carbonyl]-L-isoleucyl-L-prolyl-L-aspartic Acid] | 0.0109 µM | 0.00213 µM | 0.126 µM |
| CC[C@H](C)[C@H](NC(=O)CNC)C(=O)N[C@H]1CSSC(C)(C)[C@@H](C(=O)N[C@H](C(=O)N2CCC[C@H]2C(N)=O)[C@@H](C)CC)NC(=O)[C@H]([C@@H](C)CC)NC(=O)[C@@H]2C[C@@H]3CCCC[C@@H]3N2C(=O)[C@@H]2CCCN2C(=O)[C@H](CC(C)C)NC(=O)[C@H](CO)NC(=O)[C@H](CCCNC(=N)N)NC(=O)[C@H](CO)NC1=O [Example 109, ((N-Me)G)-IC+SRSLP-(Oic)-I-(Pen)+IP-NH2] (H-[Sar]ICSRSLP[Oic]I[Pen]IP-NH2; disulfide 3-11) | 0.076 µM | 0.0029 µM | 0.0696 µM |
| CC[C@H](C)[C@H](NC(=O)CNC)C(=O)N[C@H]1CSSC(C)(C)[C@@H](C(=O)N[C@H](C(=O)N2CCC[C@H]2C(N)=O)[C@@H](C)CC)NC(=O)[C@H]([C@@H](C)CC)NC(=O)[C@@H]2C[C@@H]3CCCC[C@@H]3C2C(=O)[C@@H]2CCCN2C(=O)[C@H](CC(C)C)NC(=O)[C@H](CO)NC(=O)[C@H](CCCNC(=N)N)NC(=O)[C@H](CO)NC1=O (stereo partly drawn) [Example 67, ((N-Me)G)-IC+SRSLP-(Oic)-I-(Pen)+IP-NH2 (HCl Salt)] (H-[Sar]ICSRSL[X1]I[Pen]IP-NH2; disulfide 3-10) | 0.072 µM | 0.0022 µM | 0.043 µM |
| CC[C@H](C)[C@H](NC(=O)[C@H](C)NC)C(=O)N[C@H]1CSSC(C)(C)[C@@H](C(=O)N[C@H](C(=O)N2CCC[C@H]2C(N)=O)[C@@H](C)CC)NC(=O)[C@H]([C@@H](C)CC)NC(=O)[C@@H]2C[C@@]3(CN2C(=O)[C@@H]2CCCN2C(=O)[C@@H](CC(C)(C)C)NC(=O)[C@H](CO)NC(=O)[C@H](CCCNC(=N)N)NC(=O)[C@H](CO)NC1=O)CC3(F)F (single isomer, unassigned; enantiomer 1) [Example 443] | 0.029 µM | 0.00078 µM | 0.074 µM |
